Measured values from publication PMC12656565, “In Vitro and Ultrastructural Evaluation of the Cytotoxic and Antileishmanial Activities of Thiosemicarbazone Compounds Against Promastigotes and Axenic Amastigotes of Leishmania infantum” (Tropical Medicine and Infectious Disease, 2025).
Peptide text beside a SMILES is read from it. * marks the point of attachment. Cbz = O=C(OCc1ccccc1)*

How the values were obtained:
[1] = test system: L. infantum promastigote cells; experiment: Mitochondrial membrane potential (Rhodamine 123, flow cytometry); assay type: cell-based, Leishmania infantum
Protocol: To evaluate the effects of compounds on the mitochondrial membrane potential (ΔΨm) of Leishmania infantum, the cationic probe Rhodamine 123 (Rod 123) was used through quantitative flow cytometry analysis. […] After incubation, cells were centrifuged at 3000× g for 5 min, and supernatants discarded. […] Hydrogen peroxide (H2O2) at 1 μM was used as positive control, previously described in the literature as an inducer of mitochondrial potential loss. Cells were analyzed by flow cytometry on the FACSCalibur equipment (Becton & Dickinson, San José, CA, USA), with excitation at 488 nm and detection at 505/534 nm. Fifty thousand events per sample were acquired. Data were expressed as percentage of cells stained with Rhodamine 123 for each tested condition. Fluorescence variation was quantified by Variation Index (VI), calculated by the equation: VI = (MT − MC)/MC, where MT corresponds to the median fluorescence of treated cells and MC to the median of control cells (untreated).

J774.A1 macrophages = test system: J774.A1 macrophages; set-up: method as in PMID 33590474; conditions: highest concentration tested 75 µM, previously determined in collaboration with Jacob et al., ref [20]; cited from earlier work
[2] = test system: Leishmania infantum promastigote forms (MHOM/BR/BH46); experiment: In vitro leishmanicidal activity against promastigotes (Neubauer chamber counting); assay type: cell-based; conditions: for IC50 / inhibition at 20 µM: Leishmania infantum; for IC50: 72 h, L. infantum promastigotes, linear regression; for inhibition at 20 µM: lowest concentration tested in the promastigote series (20–400 µM)
Protocol: For this study, the Leishmania infantum strain MHOM/BR/BH46 was used. It was maintained by cryopreservation in liquid nitrogen, using a preservation solution containing 10% dimethyl sulfoxide (DMSO) and 90% fetal bovine serum (FBS). For the experiments, the strain was reactivated and maintained in continuous culture in modified Schneider’s Drosophila medium, supplemented with 10% heat-inactivated fetal bovine serum (FBS), at a temperature of 26 °C, with subcultures performed every 72 h. The promastigote form was used for the in vitro assays, with growth observed and monitored through parasite counting using a Neubauer chamber (iNCYTO CChip DHC-N01, Cheonan-Si, Republic of Korea).
The in vitro leishmanicidal activity of compounds LT-70, LT-73, LT-75, LT-89, and amphotericin B was determined as described by Aliança et al., with adaptations. Promastigote forms of L. infantum (MHOM/BR/BH46) were maintained in Schneider’s medium supplemented with 10% fetal bovine serum (FBS), incubated at 26 °C. For experiments, parasites were subcultured and grown for 72 h until reaching stationary phase. Subsequently, they were adjusted to a concentration of 1 × 10^6 parasites/mL. Cultures were then incubated in the presence of the tested compounds (20–400 µM) and Amphotericin B was tested from 0.01 to 1.0 µM in preliminary range-finding assays, confirming an IC50 of 0.04 µM, both prepared in DMSO (final DMSO concentration < 1%), as well as a control containing only the diluent. Analyses were performed in technical triplicate and biological duplicate. Cultures were maintained at 26 °C for 72 h, with daily parasite counts performed using a Neubauer chamber. The median inhibitory concentration (IC50) was determined after 72 h by linear regression using SPSS 25.0 software for Mac. All assays were performed in 24-well flat-bottom plates (2 mL final volume per well), with parasite inoculum verified by Neubauer counting chamber. The compounds LT-73 and LT-75 were selected based on their best leishmanicidal performance and respective selectivity index (SI), calculated as the ratio between the cytotoxic concentration for 50% of host cells (CC50) and the IC50 obtained for parasites. […] IC50 and CC50 values were obtained by linear regression using […]. This method has been validated in our previous thiosemicarbazone publications. Each assay was conducted in triplicate across two independent biological experiments performed on separate days to ensure reproducibility and minimize batch effects. MTT was selected for consistency with the validated thiosemicarbazone protocol by Jacob et al., ensuring methodological coherence with prior data.

[3] = test system: axenic amastigote forms of Leishmania amazonensis; set-up: method as in ref [22] Oliveira et al.; conditions: ref [22] Oliveira et al.; cited from earlier work
Leishmania infantum = test system: Leishmania infantum; set-up: method as in PMID 35861942, PMID 14982775; conditions: against Leishmania infantum, similar in vitro conditions; ref [25],[29]; cited from earlier work

Row | SMILES | CC50 (J774.A1 macrophages) | IC50 [2] | inhibition at 20 µM [2] | further results
1 | OO [Hydrogen Peroxide (H2O2), Hydrogen peroxide, reference compound] |  |  |  | Mean (Rho 123 fluorescence) ([1]; positive control, H2O2 at 1 μM): 581 ± 35; Variation (Variation Index, VI = (MT − MC)/MC) ([1]; positive control, H2O2 at 1 μM): −0.18 ± 0.08; Variability Index (VI), range ([1]; range over the tested concentrations (1× and 2× IC50; H2O2 control)): −0.018 to −0.73
2 | N#Cc1ccc2[nH]cc(/C=N/NC(=S)Nc3ccccc3)c2c1 [LT-70] | 64 ± 5 µM | < 20 µM | 100% | 
3 | C=CCNC(=S)N/N=C\c1c[nH]c2c(C)cccc12 [LT-89] | 60 ± 4 µM | < 20 µM | 100% | SI (CC50/IC50) ([2]; CC50 J774 macrophages / IC50 promastigotes): 4.3
4 | CC(C)[C@H](NC(=O)OCc1ccccc1)C(=O)N[C@H](C=O)Cc1ccccc1 [MDL28170] (Cbz-Val-Phe-aldehyde) |  |  |  | IC50 [3]: 13.5 µM
5 | CCCCCCCCCCCCCCCCOP(=O)([O-])OCC[N+](C)(C)C [miltefosine] |  |  |  | IC50 (Leishmania infantum): 8 to 12 µM
